From ChEMBL document CHEMBL1158931, “Pseudosemiglabrin, a platelet aggregation inhibitor from tephrosia semiglabra” (J Nat Prod, 1990) come the findings set out here.

The nature of test [1]: Antiplatelet aggregatory activity against U46619-induced human platelet aggregation at 6.5 ug/ml by turbidimetric method. The class given is functional.
Test [2] has as its system Platelet. As to the kind of experiment: Antiplatelet aggregatory activity against adenosine diphosphate-induced human platelet aggregation at 13 ug/ml by turbidimetric method. Format: functional, cell-based.
A short description of test [3]: Antiplatelet aggregatory activity against U46619-induced human platelet aggregation by turbidimetric method. The class given is functional, cell-based.
The nature of test [4]: Antiplatelet aggregatory activity against U46619-induced human platelet aggregation at 45 ug/ml by turbidimetric method. The class given is functional.
Test [5] deals with Platelet. In words: Antiplatelet aggregatory activity against adenosine diphosphate-induced human platelet aggregation at 44 ug/ml by turbidimetric method. Format: functional, cell-based.

pIC50: −log10 of the molar value. Calls of active or inactive are those of the source. No cut-off for these calls is given here.

What is called pIC50 is the negative decadic logarithm of the IC50, by convention in mol/L. Regarding `CC(=O)O[C@H]1[C@H]2c3c(ccc4c(=O)cc(-c5ccccc5)oc34)O[C@H]2OC1(C)C`, the Activity in test [1] is given as 85%. Also, in the test with Platelet [2], the result was inactive. In test [3], this molecule had a pIC50 of 4.90.

`CC(=O)O[C@H]1[C@@H]2c3c(ccc4c(=O)cc(-c5ccccc5)oc34)O[C@@H]2OC1(C)C`: the Activity in test [4] amounted to 70%. Besides, in the test with Platelet [5], the result was inactive.
